{
  "source": "patent US4604239A",
  "about": "“Antibiotics” (Eli Lilly and Company, priority 1985, dated 1986)",
  "key": {"Clostridium difficile": {"test_system": "Clostridium difficile", "format": "cell-based"}, "solubility": {"experiment": "solubility", "format": "physicochemical"}, "[1]": {"test_system": "Fusobacterium necrophorum", "experiment": "agar-dilution MIC", "format": "cell-based", "settings": "Fusobacterium necrophorum 6054A; Table 14"}, "Propionibacterium acnes": {"test_system": "Propionibacterium acnes", "experiment": "agar-dilution MIC", "format": "cell-based", "source_text": "Antibiotic A41030 factors A, B and C have also been tested and found to be active against a genus of anaerobic bacteria identified as Propionibacterium acnes."}, "Peptococcus prevoti": {"test_system": "Peptococcus prevoti", "experiment": "agar-dilution MIC", "format": "cell-based"}, "Hemophilus influenzae": {"test_system": "Hemophilus influenzae", "experiment": "agar-dilution MIC", "format": "cell-based"}},
  "note": "Like-named read-outs stand apart in the source and are kept apart here.",
  "data": [
    {"compound": "NC1C(=O)NC2Cc3ccc(c(Cl)c3)Oc3cc4cc(c3O)Oc3ccc(cc3Cl)C(O)C3NC(=O)C(NC(=O)C4NC(=O)C(NC2=O)c2cc(O)cc(c2)Oc2cc1ccc2O)c1cc(Cl)c(O)c(c1)-c1c(O)cc(O)cc1C(C(=O)O)NC3=O", "note": "(stereo not shown) [A41030 factor A]", "values": [
      {"measurement": "MIC", "setting": "Clostridium difficile; Clostridium difficile 78, Table 16", "value": 1.0, "unit": "µg/mL"},
      {"measurement": "MIC", "setting": "Clostridium difficile; Clostridium difficile 107B, Table 16", "value": 1.0, "unit": "µg/mL"},
      {"measurement": "MIC", "setting": "Clostridium difficile; Clostridium difficile 111F, Table 16", "value": 1.0, "unit": "µg/mL"},
      {"measurement": "MIC", "setting": "Clostridium difficile; Clostridium difficile 1153, Table 16", "value": 1.0, "unit": "µg/mL"},
      {"measurement": "MIC", "setting": "Clostridium difficile; Clostridium difficile 2634, Table 16", "value": 1.0, "unit": "µg/mL"},
      {"measurement": "MIC", "setting": "Clostridium difficile; Clostridium difficile 2994, Table 14", "value": 32, "unit": "µg/mL"},
      {"measurement": "MIC", "setting": "Clostridium difficile; Clostridium difficile 3424-5B, Table 16", "value": 1.0, "unit": "µg/mL"},
      {"measurement": "MIC", "setting": "Clostridium difficile; Clostridium difficile 3816, Table 16", "value": 1.0, "unit": "µg/mL"},
      {"measurement": "MIC", "setting": "Clostridium difficile; Clostridium difficile 3950D, Table 16", "value": 1.0, "unit": "µg/mL"},
      {"measurement": "MIC", "setting": "Clostridium difficile; Clostridium difficile 6890, Table 16", "value": 1.0, "unit": "µg/mL"},
      {"measurement": "MIC", "setting": "Clostridium difficile; Clostridium difficile 8484, Table 16", "value": 1.0, "unit": "µg/mL"},
      {"measurement": "MIC", "setting": "Clostridium difficile; Clostridium difficile A-194, Table 16", "value": 1.0, "unit": "µg/mL"},
      {"measurement": "MIC", "setting": "Clostridium difficile; Clostridium difficile A-195, Table 16", "value": 1.0, "unit": "µg/mL"},
      {"measurement": "MIC", "setting": "Clostridium difficile; Clostridium difficile A-196, Table 16", "value": 1.0, "unit": "µg/mL"},
      {"measurement": "MIC", "setting": "Clostridium difficile; Clostridium difficile A-279, Table 16", "value": 1.0, "unit": "µg/mL"},
      {"measurement": "MIC", "setting": "Clostridium difficile; Clostridium difficile A-280, Table 16", "value": 1.0, "unit": "µg/mL"},
      {"measurement": "MIC", "setting": "Clostridium difficile; Clostridium difficile A-281, Table 16", "value": 1.0, "unit": "µg/mL"},
      {"measurement": "MIC", "setting": "Clostridium difficile; Clostridium difficile WAL-2112, Table 16", "value": 1.0, "unit": "µg/mL"},
      {"measurement": "MIC", "setting": "Clostridium difficile; Clostridium difficile WAL-3657, Table 16", "value": 1.0, "unit": "µg/mL"},
      {"measurement": "MIC", "setting": "Clostridium difficile; Clostridium difficile WAL-4268, Table 16", "value": 1.0, "unit": "µg/mL"},
      {"measurement": "solubility (solvents)", "setting": "solubility", "value": "soluble in alcohol-water mixtures, in dimethylsulfoxide, in dimethylformamide, in dimethylsulfoxide-water mixtures, in dimethylformamide-water mixtures, in dilute aqueous acid, and in dilute aqueous base"},
      {"measurement": "MIC", "setting": "[1]", "value": 8, "unit": "µg/mL"},
      {"measurement": "MIC", "setting": "Propionibacterium acnes; P. acnes 104, 24-hour, Table 13", "value": 0.25, "unit": "µg/mL"},
      {"measurement": "MIC", "setting": "Propionibacterium acnes; P. acnes 107, 24-hour, Table 13", "value": 0.06, "unit": "µg/mL"},
      {"measurement": "MIC", "setting": "Propionibacterium acnes; P. acnes 5170, 24-hour, Table 13", "value": "≤ 0.03", "unit": "µg/mL"},
      {"measurement": "MIC", "setting": "Propionibacterium acnes; P. acnes 5176, 24-hour, Table 13", "value": "≤ 0.03", "unit": "µg/mL"},
      {"measurement": "MIC", "setting": "Propionibacterium acnes; P. acnes 5187, 24-hour, Table 13", "value": "≤ 0.03", "unit": "µg/mL"},
      {"measurement": "MIC", "setting": "Propionibacterium acnes; P. acnes 5197, 24-hour, Table 13", "value": "≤ 0.03", "unit": "µg/mL"},
      {"measurement": "MIC", "setting": "Propionibacterium acnes; P. acnes 5226, 24-hour, Table 13", "value": 0.5, "unit": "µg/mL"},
      {"measurement": "MIC", "setting": "Propionibacterium acnes; P. acnes 5227, 24-hour, Table 13", "value": "≤ 0.03", "unit": "µg/mL"},
      {"measurement": "MIC", "setting": "Propionibacterium acnes; P. acnes 5228, 24-hour, Table 13", "value": 1.0, "unit": "µg/mL"},
      {"measurement": "MIC", "setting": "Propionibacterium acnes; P. acnes 5229, 24-hour, Table 13", "value": 0.5, "unit": "µg/mL"},
      {"measurement": "MIC", "setting": "Propionibacterium acnes; P. acnes 5246, 24-hour, Table 13", "value": 0.06, "unit": "µg/mL"},
      {"measurement": "MIC", "setting": "Propionibacterium acnes; P. acnes 5292, 24-hour, Table 13", "value": 0.06, "unit": "µg/mL"},
      {"measurement": "MIC", "setting": "Propionibacterium acnes; Propionibacterium acnes 79, Table 14", "value": "≤ 0.25", "unit": "µg/mL"},
      {"measurement": "MIC", "setting": "Peptococcus prevoti; Pc. prevoti 1281, Table 15", "value": 0.5, "unit": "µg/mL"},
      {"measurement": "MIC", "setting": "Peptococcus prevoti; Peptococcus prevoti 1281, Table 14", "value": "≤ 0.25", "unit": "µg/mL"},
      {"measurement": "MIC", "setting": "Hemophilus influenzae; Haemophilus influenzae 76, end point after 24 hours, Table 18", "value": 4, "unit": "µg/mL"},
      {"measurement": "MIC", "setting": "Hemophilus influenzae; Haemophilus influenzae 251, Table 17", "value": 2, "unit": "µg/mL"},
      {"measurement": "MIC", "setting": "Hemophilus influenzae; Haemophilus influenzae 312, end point after 24 hours, Table 18", "value": 2, "unit": "µg/mL"},
      {"measurement": "MIC", "setting": "Hemophilus influenzae; Haemophilus influenzae 4842, end point after 24 hours, Table 18", "value": 2, "unit": "µg/mL"},
      {"measurement": "MIC", "setting": "Hemophilus influenzae; Haemophilus influenzae 16836, end point after 24 hours, Table 18", "value": 4, "unit": "µg/mL"},
      {"measurement": "MIC", "setting": "Hemophilus influenzae; Haemophilus influenzae Bond, end point after 24 hours, Table 18", "value": 2, "unit": "µg/mL"},
      {"measurement": "MIC", "setting": "Hemophilus influenzae; Haemophilus influenzae Brun, Table 17", "value": 8, "unit": "µg/mL"},
      {"measurement": "MIC", "setting": "Hemophilus influenzae; Haemophilus influenzae C.L., end point after 24 hours, Table 18", "value": 4, "unit": "µg/mL"},
      {"measurement": "MIC", "setting": "Hemophilus influenzae; Haemophilus influenzae Mx366, end point after 24 hours, Table 18", "value": 2, "unit": "µg/mL"},
      {"measurement": "MIC", "setting": "Hemophilus influenzae; Haemophilus influenzae Mx371, end point after 24 hours, Table 18", "value": 2, "unit": "µg/mL"},
      {"measurement": "MIC", "setting": "Hemophilus influenzae; Hemophilus influenzae 75-312, Table 9", "value": 8, "unit": "µg/mL"},
      {"measurement": "MIC", "setting": "Hemophilus influenzae; Hemophilus influenzae 75-313, Table 9", "value": 16, "unit": "µg/mL"},
      {"measurement": "MIC", "setting": "Hemophilus influenzae; Hemophilus influenzae 75-364, Table 9", "value": 16, "unit": "µg/mL"},
      {"measurement": "MIC", "setting": "Hemophilus influenzae; Hemophilus influenzae 75-465, Table 9", "value": 32, "unit": "µg/mL"},
      {"measurement": "MIC", "setting": "Hemophilus influenzae; Hemophilus influenzae 75-19300, Table 9", "value": 16, "unit": "µg/mL"},
      {"measurement": "MIC", "setting": "Hemophilus influenzae; Hemophilus influenzae 75-90383, Table 9", "value": 16, "unit": "µg/mL"},
      {"measurement": "MIC", "setting": "Hemophilus influenzae; Hemophilus influenzae 4842, Table 9", "value": 8, "unit": "µg/mL"},
      {"measurement": "MIC", "setting": "Hemophilus influenzae; Hemophilus influenzae A. Hall, Table 9", "value": 16, "unit": "µg/mL"},
      {"measurement": "MIC", "setting": "Hemophilus influenzae; Hemophilus influenzae Bruno, Table 9", "value": 16, "unit": "µg/mL"},
      {"measurement": "MIC", "setting": "Hemophilus influenzae; Hemophilus influenzae C. Steele, Table 9", "value": 16, "unit": "µg/mL"},
      {"measurement": "MIC", "setting": "Hemophilus influenzae; Hemophilus influenzae G. Newton, Table 9", "value": 32, "unit": "µg/mL"},
      {"measurement": "MIC", "setting": "Hemophilus influenzae; Hemophilus influenzae Howard, Table 9", "value": 16, "unit": "µg/mL"},
      {"measurement": "MIC", "setting": "Hemophilus influenzae; Hemophilus influenzae Miller, Table 9", "value": 16, "unit": "µg/mL"},
      {"measurement": "MIC", "setting": "Hemophilus influenzae; Hemophilus influenzae P. Wylie, Table 9", "value": 16, "unit": "µg/mL"},
      {"measurement": "MIC", "setting": "Hemophilus influenzae; Hemophilus influenzae R251, Table 9", "value": 16, "unit": "µg/mL"},
      {"measurement": "MIC", "setting": "Hemophilus influenzae; Hemophilus influenzae R259, Table 9", "value": 16, "unit": "µg/mL"},
      {"measurement": "MIC", "setting": "Hemophilus influenzae; Hemophilus influenzae R272, Table 9", "value": 16, "unit": "µg/mL"}
    ]}
  ]
}
